According to patent publication US10189841B2, “Purinones as ubiquitin-specific protease 1 inhibitors” (Forma Therapeutics, Inc., priority 2015, dated 2019):

Each molecule was assayed against USP1 (construct USP1 (I-785, GG670, 671AA)/UAF1 (I-677)-Flag) (Homo sapiens (Human), UniProt O94782, G670A/G671A) (assay: Ubiquitin-Rhodamine 110 assay for USP1 activity). Conditions: USP1/UAF1 25 pM, Ub-Rh110 25 nM, 30 min preincubation.
Type: biochemical
In short: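 Ub-Rh110 (25 nM, ≪Km) cleavage read at ex 485/em 535 in Tris pH 8.0, CaCl2, GSH, Prionex, Triton X-100. The screen used 10 µM compound, 100 pM USP1/UAF1 and 45 min at RT.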

Chain of USP1 (construct USP1 (I-785, GG670, 671AA)/UAF1 (I-677)-Flag) (O94782 whole entry G670A/G671A): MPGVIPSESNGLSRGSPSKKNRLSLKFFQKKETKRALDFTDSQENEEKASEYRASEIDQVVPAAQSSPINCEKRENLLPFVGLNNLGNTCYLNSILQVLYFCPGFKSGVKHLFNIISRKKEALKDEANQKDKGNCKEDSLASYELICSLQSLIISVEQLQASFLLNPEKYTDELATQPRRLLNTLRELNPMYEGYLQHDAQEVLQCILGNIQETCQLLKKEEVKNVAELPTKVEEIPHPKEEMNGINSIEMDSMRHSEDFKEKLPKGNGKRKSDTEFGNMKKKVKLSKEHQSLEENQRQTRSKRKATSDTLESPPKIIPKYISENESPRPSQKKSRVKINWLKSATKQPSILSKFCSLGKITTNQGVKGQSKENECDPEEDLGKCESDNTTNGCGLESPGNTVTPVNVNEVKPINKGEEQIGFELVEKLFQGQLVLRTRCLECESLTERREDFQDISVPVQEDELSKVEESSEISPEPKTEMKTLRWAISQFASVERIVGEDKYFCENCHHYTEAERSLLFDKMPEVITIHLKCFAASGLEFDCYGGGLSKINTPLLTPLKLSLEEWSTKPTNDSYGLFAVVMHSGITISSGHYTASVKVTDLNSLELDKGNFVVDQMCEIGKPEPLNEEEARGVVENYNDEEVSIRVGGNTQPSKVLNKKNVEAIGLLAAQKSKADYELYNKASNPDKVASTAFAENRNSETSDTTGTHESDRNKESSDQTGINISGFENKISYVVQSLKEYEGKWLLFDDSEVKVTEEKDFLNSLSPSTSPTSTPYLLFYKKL
Chain of USP1 (construct USP1 (I-785, GG670, 671AA)/UAF1 (I-677)-Flag) (Q8TAF3 whole entry partner): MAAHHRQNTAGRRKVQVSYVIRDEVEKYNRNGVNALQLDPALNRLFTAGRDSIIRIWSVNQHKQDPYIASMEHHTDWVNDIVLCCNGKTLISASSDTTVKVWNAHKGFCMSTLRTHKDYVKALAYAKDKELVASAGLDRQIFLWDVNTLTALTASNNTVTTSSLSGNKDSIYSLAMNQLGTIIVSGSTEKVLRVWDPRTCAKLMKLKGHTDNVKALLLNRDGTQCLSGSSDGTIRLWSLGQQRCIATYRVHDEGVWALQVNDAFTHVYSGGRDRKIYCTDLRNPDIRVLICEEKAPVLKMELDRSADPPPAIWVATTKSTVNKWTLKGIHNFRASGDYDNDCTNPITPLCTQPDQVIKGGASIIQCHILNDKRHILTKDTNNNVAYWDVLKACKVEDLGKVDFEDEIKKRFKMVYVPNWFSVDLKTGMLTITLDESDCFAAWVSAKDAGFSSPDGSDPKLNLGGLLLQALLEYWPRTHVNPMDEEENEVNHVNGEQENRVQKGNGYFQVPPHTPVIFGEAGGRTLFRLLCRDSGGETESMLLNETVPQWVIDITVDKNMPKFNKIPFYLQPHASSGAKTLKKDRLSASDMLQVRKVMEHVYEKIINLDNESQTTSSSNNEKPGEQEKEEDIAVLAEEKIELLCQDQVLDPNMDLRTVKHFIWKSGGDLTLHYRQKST

Compound	IC50
CC(C)c1ccccc1-c1ncc2c(n1)n(Cc1ccc(-c3cccc(OCCN(C)C)c3)cc1)c(=O)n2C [Compound I-260, 9-((3′-(2-(dimethylamino)ethoxy)-[1,1′-biphenyl]-4-yl)methyl)-2-(2-isopropylphenyl)-7-methyl-7,9-dihydro-8H-purin-8-one]	50 to 200 nM
CC(C)c1ccccc1-c1ncc2c(n1)n(Cc1ccc(-c3ccc(OCCN(C)C)cc3)cc1)c(=O)n2C [Compound I-261, 9-((4′-(2-(dimethylamino)ethoxy)-[1,1′-biphenyl]-4-yl)methyl)-2-(2-isopropylphenyl)-7-methyl-7,9-dihydro-8H-purin-8-one]	50 to 200 nM
CC(C)c1ccccc1-c1ncc2c(n1)n(Cc1ccc(-c3ccc(CCN(C)C)cc3)cc1)c(=O)n2C [Compound I-262, 9-((4′-(2-(dimethylamino)ethyl)-[1,1′-biphenyl]-4-yl)methyl)-2-(2-isopropylphenyl)-7-methyl-7,9-dihydro-8H-purin-8-one]	50 to 200 nM
CC(C)c1ccccc1-c1ncc2c(n1)n(Cc1ccc(-c3cc(N4CCOCC4)ncn3)cc1)c(=O)n2C [Compound I-263, 2-(2-isopropylphenyl)-7-methyl-9-(4-(6-morpholinopyrimidin-4-yl)benzyl)-7,9-dihydro-8H-purin-8-one]	200 to 2000 nM
CC(C)c1ccccc1-c1ncc2c(n1)n(Cc1ccc(-c3cncn3C)cc1)c(=O)n2C [Compound I-264, 2-(2-isopropylphenyl)-7-methyl-9-(4-(1-methyl-1H-imidazol-5-yl)benzyl)-7,9-dihydro-8H-purin-8-one]	50 to 200 nM
CC(C)c1ccccc1-c1ncc2c(n1)n(Cc1ccc(-c3cnn4c3COCC4)cc1)c(=O)n2C [Compound I-265, 9-(4-(6,7-dihydro-4H-pyrazolo[5,1-c][1,4]oxazin-3-yl)benzyl)-2-(2-isopropylphenyl)-7-methyl-7,9-dihydro-8H-purin-8-one]	200 to 2000 nM
CC(C)c1ccccc1-c1ncc2c(n1)n(Cc1ccc(-c3cccc4ncnn34)cc1)c(=O)n2C [Compound I-266, 9-(4-([1,2,4]triazolo[1,5-a]pyridin-5-yl)benzyl)-2-(2-isopropylphenyl)-7-methyl-7,9-dihydro-8H-purin-8-one]	50 to 200 nM
CC(C)c1ccccc1-c1ncc2c(n1)n(Cc1ccc(-c3cccc4cnoc34)cc1)c(=O)n2C [Compound I-267, 9-(4-(benzo[d]isoxazol-7-yl)benzyl)-2-(2-isopropylphenyl)-7-methyl-7,9-dihydro-8H-purin-8-one]	200 to 2000 nM
CC(C)c1ccccc1-c1ncc2c(n1)n(Cc1ccc(-c3cccc4cn[nH]c34)cc1)c(=O)n2C [Compound I-268, 9-(4-(1H-indazol-7-yl)benzyl)-2-(2-isopropylphenyl)-7-methyl-7,9-dihydro-8H-purin-8-one]	50 to 200 nM
CC(C)c1ccccc1-c1ncc2c(n1)n(Cc1ccc(-c3cccn4ccnc34)cc1)c(=O)n2C [Compound I-269, 9-(4-(imidazo[1,2-a]pyridin-8-yl)benzyl)-2-(2-isopropylphenyl)-7-methyl-7,9-dihydro-8H-purin-8-one]	< 50 nM
CC(C)c1ccccc1-c1ncc2c(n1)n(Cc1ccc(-c3cccc4nccn34)cc1)c(=O)n2C [Compound I-270, 9-(4-(imidazo[1,2-a]pyridin-5-yl)benzyl)-2-(2-isopropylphenyl)-7-methyl-7,9-dihydro-8H-purin-8-one]	200 to 2000 nM
CC(C)c1ccccc1-c1ncc2c(n1)n(Cc1ccc(-c3cn(C)cn3)cc1)c(=O)n2C [Compound I-271, 2-(2-isopropylphenyl)-7-methyl-9-(4-(1-methyl-1H-imidazol-4-yl)benzyl)-7,9-dihydro-8H-purin-8-one]	< 50 nM
CC(C)c1ccccc1-c1ncc2c(n1)n(Cc1ccc(-c3ncn(C)n3)cc1)c(=O)n2C [Compound I-272, 2-(2-isopropylphenyl)-7-methyl-9-(4-(1-methyl-1H-1,2,4-triazol-3-yl)benzyl)-7,9-dihydro-8H-purin-8-one]	50 to 200 nM
CC(C)c1ccccc1-c1ncc2[nH]c(=O)n(Cc3ccc(-c4cn(C)cn4)cc3)c2n1 [Compound I-273, 2-(2-isopropylphenyl)-9-(4-(1-methyl-1H-imidazol-4-yl)benzyl)-7,9-dihydro-8H-purin-8-one]	< 50 nM
CC(C)c1ccccc1-c1ncc2[nH]c(=O)n(Cc3ccc(-c4ncn(C)n4)cc3)c2n1 [Compound I-274, 2-(2-isopropylphenyl)-9-(4-(1-methyl-1H-1,2,4-triazol-3-yl)benzyl)-7,9-dihydro-8H-purin-8-one]	50 to 200 nM
CC(C)c1ccccc1-c1ncc2[nH]c(=O)n(Cc3ccc(-c4cn(C(C)C)cn4)cc3)c2n1 [Compound I-275, 9-(4-(1-isopropyl-1H-imidazol-4-yl)benzyl)-2-(2-isopropylphenyl)-7,9-dihydro-8H-purin-8-one]	< 50 nM
Cc1nc(-c2ccc(Cn3c(=O)n(C)c4cnc(-c5ccccc5C(C)C)nc43)cc2)cn1C [Compound I-276, 9-(4-(1,2-dimethyl-1H-imidazol-4-yl)benzyl)-2-(2-isopropylphenyl)-7-methyl-7,9-dihydro-8H-purin-8-one]	< 50 nM
CC(C)c1ccccc1-c1ncc2c(n1)n(Cc1ccc(-c3cn(C(C)C)cn3)cc1)c(=O)n2C [Compound I-277, 9-(4-(1-isopropyl-1H-imidazol-4-yl)benzyl)-2-(2-isopropylphenyl)-7-methyl-7,9-dihydro-8H-purin-8-one]	< 50 nM
CC(C)c1ccccc1-c1ncc2c(n1)n(Cc1ccc(-c3nc(C(N)=O)n(C)n3)cc1)c(=O)n2C [Compound I-278, 3-(4-((2-(2-isopropylphenyl)-7-methyl-8-oxo-7,8-dihydro-9H-purin-9-yl)methyl)phenyl)-1-methyl-1H-1,2,4-triazole-5-carboxamide]	50 to 200 nM
Cc1nc(-c2ccc(Cn3c(=O)n(C)c4cnc(-c5ccccc5C(C)C)nc43)cc2)nn1C [Compound I-279, 9-(4-(1,5-dimethyl-1H-1,2,4-triazol-3-yl)benzyl)-2-(2-isopropylphenyl)-7-methyl-7,9-dihydro-8H-purin-8-one]	< 50 nM
CC(C)c1ccccc1-c1ncc2c(n1)n(Cc1ccc(-c3nc(C(F)(F)F)n(C)n3)cc1)c(=O)n2C [Compound I-280, 2-(2-isopropylphenyl)-7-methyl-9-(4-(1-methyl-5-(trifluoromethyl)-1H-1,2,4-triazol-3-yl)benzyl)-7,9-dihydro-8H-purin-8-one]	< 50 nM
COc1nc(-c2ccc(Cn3c(=O)n(C)c4cnc(-c5ccccc5C(C)C)nc43)cc2)nn1C [Compound I-281, 2-(2-isopropylphenyl)-9-(4-(5-methoxy-1-methyl-1H-1,2,4-triazol-3-yl)benzyl)-7-methyl-7,9-dihydro-8H-purin-8-one]	< 50 nM
CC(C)c1ccccc1-c1ncc2c(n1)n(Cc1ccc(-c3nc(N4CCOCC4)n(C)n3)cc1)c(=O)n2C [Compound I-282, 2-(2-isopropylphenyl)-7-methyl-9-(4-(1-methyl-5-morpholino-1H-1,2,4-triazol-3-yl)benzyl)-7,9-dihydro-8H-purin-8-one]	50 to 200 nM
Cc1nc(-c2ccc(Cn3c(=O)n(C)c4cnc(-c5ccccc5C(C)C)nc43)cc2)n(C)n1 [Compound I-283, 9-(4-(1,3-dimethyl-1H-1,2,4-triazol-5-yl)benzyl)-2-(2-isopropylphenyl)-7-methyl-7,9-dihydro-8H-purin-8-one]	< 50 nM
